Consider 17 compounds from PMC12344683, “N-alkyl and N-benzyl indoles are anti-SARS-CoV-2 agents and nsp13 inhibitors” (Journal of Enzyme Inhibition and Medicinal Chemistry, 2025).

The target of assay [1] is T1, SARS-CoV-2 nsp13 (Severe acute respiratory syndrome coronavirus 2, UniProt P0DTD1). As to the kind of experiment: SARS-CoV-2 nsp13 unwinding-associated activity (fluorescence, BSA-TCEP). In kind it is biochemical. The conditions noted are these: for IC50: SARS-CoV-2 nsp13-associated unwinding activity, from dose-response curves; for remaining activity at 30 µM: read-out: Percentage of enzymatic residual activity (unwinding).

In assay [2] the target is T1, SARS-CoV-2 nsp13. As to the kind of experiment: SARS-CoV-2 nsp13 ATPase-associated activity (Biomol Green, BSA-TCEP). The assay is classed as biochemical. The conditions noted are these: for IC50: SARS-CoV-2 nsp13-associated ATPase activity, from dose-response curves; for remaining activity at 30 µM: read-out: Percentage of enzymatic residual activity (ATPase).
Where [3] appears, read: read-out: Activity in enzyme assay IC50 Unwinding BSA-TCEP.
Setting [4] is: read-out: Activity in enzyme assay IC50 ATPase BSA-TCEP.
The mark [5] stands for this setting: Activity in enzyme assay IC50 Unwinding BSA-TCEP.
Setting [6] is: Activity in enzyme assay IC50 ATPase BSA-TCEP.

For `COc1ccc(Cn2cc(/C=C/C(=O)/C=C(\O)C(=O)O)c3ccccc32)cc1` [5a, (2Z,5E)-2-hydroxy-6-(1-(4-methoxybenzyl)-1H-indol-3-yl)-4-oxohexa-2,5-dienoic acid], the IC50 in assay [1] (setting [3]) turned out to be 10.5 ± 0.81 µM; in assay [2] (setting [4]), 19.9 ± 0.73 µM.

Regarding `Cc1ccc(Cn2cc(/C=C/C(=O)/C=C(\O)C(=O)O)c3ccccc32)cc1` [5b], the IC50 in assay [1] (setting [3]) was 13.6 ± 1.96 µM; in assay [2] (setting [4]) it was 3.83 ± 0.45 µM.

For the compound `O=C(/C=C(\O)C(=O)O)/C=C/c1cn(Cc2ccc(F)cc2)c2ccccc12` [5d, (2Z,5E)-6-(1-(4-fluorobenzyl)-1H-indol-3-yl)-2-hydroxy-4-oxohexa-2,5-dienoic acid], the IC50 in assay [1] (setting [3]) was 7.63 ± 2.48 µM; in assay [2] (setting [4]), 9.91 ± 0.5 µM.

Regarding `O=C(/C=C(\O)C(=O)O)/C=C/c1cn(S(=O)(=O)c2ccccc2)c2ccccc12` [5f], the IC50 worked out at 7.54 ± 0.76 µM in assay [1] (setting [3]) and 5.36 ± 0.74 µM in assay [2] (setting [4]).

As for `O=C(/C=C(\O)C(=O)O)/C=C/c1cn(Cc2ccc(O)cc2)c2ccccc12` [5h, (2Z,5E)-2-hydroxy-6-(1-(4-hydroxybenzyl)-1H-indol-3-yl)-4-oxohexa-2,5-dienoic acid], the results for the IC50 in assay [1] (setting [3]) and in assay [2] (setting [4]) were 2.77 ± 0.42 µM and 9.1 ± 3.4 µM, respectively.

On to `CCOC(=O)/C(O)=C/C(=O)/C=C/c1cn(Cc2ccc(OC)cc2)c2ccccc12` [6a, Ethyl (2Z,5E)-2-hydroxy-6-(1-(4-methoxybenzyl)-1H-indol-3-yl)-4-oxohexa-2,5-dienoate], for which the IC50 worked out at 6.65 ± 1.2 µM in assay [1] (setting [3]) and 2.21 ± 0.26 µM in assay [2] (setting [4]).

`CCOC(=O)/C(O)=C/C(=O)/C=C/c1cn(Cc2ccc(C)cc2)c2ccccc12` [6b]: the IC50 is 7.34 ± 1.81 µM in assay [1] (setting [3]) and 2.88 ± 0.59 µM in assay [2] (setting [4]).

As for `CCOC(=O)/C(O)=C/C(=O)/C=C/c1cn(Cc2ccc(C(C)C)cc2)c2ccccc12` [6c], the results for the IC50 in assay [1] (setting [3]) and in assay [2] (setting [4]) were 5.81 ± 0.47 µM and 5.8 ± 0.12 µM, respectively.

As to `CCOC(=O)/C(O)=C/C(=O)/C=C/c1cn(Cc2ccc(F)cc2)c2ccccc12` [6d, Ethyl (2Z,5E)-6-(1-(4-fluorobenzyl)-1H-indol-3-yl)-2-hydroxy-4-oxohexa-2,5-dienoate], the values for the IC50 in assay [1] (setting [3]) and in assay [2] (setting [4]) were 3.64 ± 0.11 µM and 3.22 ± 0.14 µM, respectively.

Turning to `CCOC(=O)/C(O)=C/C(=O)/C=C/c1cn(S(=O)(=O)c2ccccc2)c2ccccc12` [6f], the IC50 in assay [1] (setting [3]) is 11 ± 0.37 µM; in assay [2] (setting [4]), 7.07 ± 0.74 µM.

In the case of `CCOC(=O)/C(O)=C/C(=O)/C=C/c1cn(Cc2ccc(C#N)cc2)c2ccccc12` [6g, Ethyl (2Z,5E)-6-(1-(4-cyanobenzyl)-1H-indol-3-yl)-2-hydroxy-4-oxohexa-2,5-dienoate], the IC50 in assay [1] (setting [3]) is 6.76 ± 1.18 µM; in assay [2] (setting [4]), 6.24 ± 0.24 µM.

Turning to `CCOC(=O)/C(O)=C/C(=O)/C=C/c1cn(Cc2ccc(O)cc2)c2ccccc12` [6h, Ethyl (2Z,5E)-2-hydroxy-6-(1-(4-hydroxybenzyl)-1H-indol-3-yl)-4-oxohexa-2,5-dienoate], the results for the IC50 in assay [1] (setting [3]) and in assay [2] (setting [4]) were 15.4 ± 1.47 µM and 3.7 ± 0.74 µM, respectively.

`CCOC(=O)/C(O)=C/C(=O)/C=C/c1cn(Cc2ccc(F)cc2)c2ccc(Cl)cc12` [6i, Ethyl (2Z,5E)-6-(5-chloro-1-(4-fluorobenzyl)-1H-indol-3-yl)-2-hydroxy-4-oxohexa-2,5-dienoate]: the half-maximal inhibitory concentration (IC50) in assay [1] (setting [3]) stood at 5.22 ± 0.44 µM; in assay [2] (setting [4]), 3.92 ± 0.96 µM.

Turning to `COc1ccc(Cn2cc(C(=O)/C=C(\O)C(=O)O)c3ccccc32)cc1` [7a], the IC50 in assay [1] (setting [5]) and in assay [2] (setting [6]) was > 30 µM in each case. Moreover, the remaining activity at 30 µM was found to be 50.4% in assay [1] and 73.4% in assay [2].

On to `Cc1ccc(Cn2cc(C(=O)/C=C(\O)C(=O)O)c3ccccc32)cc1` [7b], for which the results for the IC50 in assay [1] (setting [5]) and in assay [2] (setting [6]) were 20.6 ± 3.22 µM and 8.33 ± 0.45 µM, respectively.

Consider `CC(C)c1ccc(Cn2cc(C(=O)/C=C(\O)C(=O)O)c3ccccc32)cc1` [7c], for which the IC50 in assay [1] (setting [5]) worked out at 14.1 ± 0.48 µM; in assay [2] (setting [6]), 13 ± 1.08 µM.

`O=C(O)/C(O)=C/C(=O)c1cn(Cc2ccc(F)cc2)c2ccccc12` [7d, (Z)-4-(1-(4-fluorobenzyl)-1H-indol-3-yl)-2-hydroxy-4-oxobut-2-enoic acid]: the half-inhibitory concentration (IC50) in assay [1] (setting [5]) and in assay [2] (setting [6]) was > 30 µM in each case. Besides, the remaining activity at 30 µM was 50% in assay [1] and 70% in assay [2].
